# From US8299072B2, “Pyrazolylmethylamine compounds as calcium channel modulators and preparation method thereof” (Korea Institute of Science and Technology, priority 2008, dated 2012)
# Target: T1, α1G T-type calcium channel (Homo sapiens, UniProt O43497)
# T1 construct: expressed in transfected cells; host or cells: HEK293 cells stably expressing α1G, selected with G-418; The cell line KCTC 10519BP is named only for the FDSS6000 screen
# Experiment: T-type calcium channel activity by electrophysiological whole-cell patch-clamp technique
# Assay type: cell-based
# Settings: HEK293 cells stably expressing α1G T-type calcium channels, inhibition of inward peak currents, test pulse −30 mV, holding −100 mV
# Protocol: The novel compounds of the present invention represented by the above formula 1 were tested for their antagonistic activities with regard to T-type calcium channel as follows.
# 2) Methods for the Measurements of T-Type Calcium Channel Activity Using an Electrophysiological Whole-Cell Patch-Clamp Technique
# HEK293 cells stably expressing T-type calcium channels were cultured in DMEM (Dulbecco's modified Eagle's medium) containing 10% (v/v) fetal bovine serum and 1% penicillin/streptomycin (v/v) in humidified 5% CO2 at 36.5° C. Cells expressing α1G T-type calcium channels were selected using G-418 (0.5 mg/mL) in the culture medium. The culture medium was replaced with a fresh one every 3-4 days, and cells were subcultured every week.
# Cells were seeded on the coverglass coated with poly-L-lysine (0.5 mg/mL) for the measurements of T-type calcium channel activity 2-7 days prior to the recordings. Whole-cell recordings of T-type calcium channel currents were performed using an EPC-9 patch clamp amplifier (HEKA, Germany). Whole-cell currents were recorded using micropipettes with resistance of 3-4MΩ with the pipette (intracellular) solution containing (in mM): 130 KCl, 11 EGTA, 5 Mg-ATP, and 10 HEPES, pH to 7.4 and with the bath (extracellular) solution containing (in mM): 140 NaCl, 2 CaCl2, and 10 HEPES, pH to 7.4. The inward currents of T-type calcium channels were evoked by the test pulses of −30 mV for 50 ms at a holding potential of −100 mV every 10 seconds.
# Each compound was dissolved in dimethylsulfoxide (DMSO) as 10 mM stock solutions and diluted in the bath solution to 10 μM (containing 0.1% DMSO). […] More specifically, each compound was perfused to the bath for about 30-60 seconds, and the inhibition of the inward peak currents by a test compound was calculated as a percent inhibition from which IC50 values were determined.
# T1 sequence (O43497 whole entry): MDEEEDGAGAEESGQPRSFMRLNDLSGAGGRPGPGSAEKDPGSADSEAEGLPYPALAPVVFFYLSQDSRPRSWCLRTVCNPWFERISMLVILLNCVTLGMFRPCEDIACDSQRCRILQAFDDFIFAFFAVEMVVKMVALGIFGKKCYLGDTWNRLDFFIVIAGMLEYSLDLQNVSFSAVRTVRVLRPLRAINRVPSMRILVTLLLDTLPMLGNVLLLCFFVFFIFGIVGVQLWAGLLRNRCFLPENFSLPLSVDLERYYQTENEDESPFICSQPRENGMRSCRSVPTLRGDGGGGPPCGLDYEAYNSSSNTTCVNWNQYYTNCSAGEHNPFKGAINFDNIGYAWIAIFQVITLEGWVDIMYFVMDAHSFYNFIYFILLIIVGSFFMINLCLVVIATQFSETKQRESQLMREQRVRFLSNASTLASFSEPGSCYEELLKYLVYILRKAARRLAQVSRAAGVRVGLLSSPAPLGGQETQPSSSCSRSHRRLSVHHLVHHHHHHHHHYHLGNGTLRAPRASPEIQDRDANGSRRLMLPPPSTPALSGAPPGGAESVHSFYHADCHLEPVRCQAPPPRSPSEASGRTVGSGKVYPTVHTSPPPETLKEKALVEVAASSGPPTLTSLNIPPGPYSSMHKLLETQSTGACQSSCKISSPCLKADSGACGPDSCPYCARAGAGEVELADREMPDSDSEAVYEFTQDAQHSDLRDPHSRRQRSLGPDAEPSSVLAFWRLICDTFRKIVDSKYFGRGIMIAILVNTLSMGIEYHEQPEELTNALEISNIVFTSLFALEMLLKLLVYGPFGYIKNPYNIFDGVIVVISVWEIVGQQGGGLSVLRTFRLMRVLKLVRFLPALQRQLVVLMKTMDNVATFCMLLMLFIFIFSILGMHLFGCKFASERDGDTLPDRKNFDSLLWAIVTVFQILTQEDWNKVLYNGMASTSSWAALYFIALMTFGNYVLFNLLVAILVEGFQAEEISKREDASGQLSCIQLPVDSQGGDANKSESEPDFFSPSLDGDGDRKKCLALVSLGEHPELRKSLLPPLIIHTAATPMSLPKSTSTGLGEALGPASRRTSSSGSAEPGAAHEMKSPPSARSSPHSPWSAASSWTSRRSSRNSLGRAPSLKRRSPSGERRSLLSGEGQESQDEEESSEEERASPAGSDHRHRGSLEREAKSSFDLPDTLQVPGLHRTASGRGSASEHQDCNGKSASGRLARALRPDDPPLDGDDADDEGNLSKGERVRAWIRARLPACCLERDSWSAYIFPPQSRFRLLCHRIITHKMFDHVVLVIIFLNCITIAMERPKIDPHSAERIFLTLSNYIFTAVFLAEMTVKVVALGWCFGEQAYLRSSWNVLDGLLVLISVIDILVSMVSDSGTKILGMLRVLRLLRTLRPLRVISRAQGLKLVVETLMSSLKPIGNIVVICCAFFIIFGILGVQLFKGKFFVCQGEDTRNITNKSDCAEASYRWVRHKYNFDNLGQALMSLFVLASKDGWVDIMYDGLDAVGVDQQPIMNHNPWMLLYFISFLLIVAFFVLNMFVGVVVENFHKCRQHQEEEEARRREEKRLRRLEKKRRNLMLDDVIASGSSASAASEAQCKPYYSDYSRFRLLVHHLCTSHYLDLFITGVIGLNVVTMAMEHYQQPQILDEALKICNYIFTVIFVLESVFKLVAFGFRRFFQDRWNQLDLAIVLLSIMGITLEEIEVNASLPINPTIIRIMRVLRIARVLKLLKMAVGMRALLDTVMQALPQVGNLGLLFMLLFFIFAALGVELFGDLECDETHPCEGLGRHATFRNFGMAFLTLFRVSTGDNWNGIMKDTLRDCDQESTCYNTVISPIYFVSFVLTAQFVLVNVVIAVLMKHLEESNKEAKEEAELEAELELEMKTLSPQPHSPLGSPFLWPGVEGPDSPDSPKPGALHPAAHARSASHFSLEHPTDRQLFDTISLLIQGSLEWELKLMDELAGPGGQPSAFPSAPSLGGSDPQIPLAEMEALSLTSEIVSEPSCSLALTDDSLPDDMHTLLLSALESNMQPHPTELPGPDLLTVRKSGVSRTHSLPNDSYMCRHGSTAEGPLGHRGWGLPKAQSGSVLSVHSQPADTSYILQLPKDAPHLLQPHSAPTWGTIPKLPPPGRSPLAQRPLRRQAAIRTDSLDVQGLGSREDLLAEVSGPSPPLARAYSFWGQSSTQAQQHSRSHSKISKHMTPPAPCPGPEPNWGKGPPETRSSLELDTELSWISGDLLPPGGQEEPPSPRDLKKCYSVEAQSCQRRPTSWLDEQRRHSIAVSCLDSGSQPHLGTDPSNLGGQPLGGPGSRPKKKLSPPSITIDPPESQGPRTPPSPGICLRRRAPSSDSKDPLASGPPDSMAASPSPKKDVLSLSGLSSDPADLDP
row,SMILES,IC50 [nM]
1,"Cc1cccc(N2CCN(CC(=O)NCc3cc(C)n(-c4ccccc4)n3)CC2)c1C [Compound No. 1, 3-{[4-(2,3-dimethyl)phenylpiperazin-1-yl]methylcarboxamido}methyl-5-methyl-1-phenyl-1H-pyrazole]",20 ± 10
2,"Cc1cc(CNC(=O)CN2CCN(C(c3ccccc3)c3ccccc3)CC2)nn1-c1ccccc1 [Compound No. 3, 3-[(4-benzhydrylpiperazin-1-yl)methylcarboxamido]methyl-5-methyl-1-phenyl-1H-pyrazole]",1830 ± 120
3,"Cc1cc(CNC(=O)CN2CCN(Cc3cccc(C(F)(F)F)c3)CC2)nn1-c1ccccc1 [Compound No. 5, 3-{[4-(3-trifluoromethyl)benzylpiperazin-1-yl]methylcarboxamido}methyl-5-methyl-1-phenyl-1H-pyrazole]",1420 ± 160
4,"Cc1cc(CNC(=O)CN2CCN(Cc3ccc(Cl)c(Cl)c3)CC2)nn1-c1ccccc1 [Compound No. 6, 3-{[4-(3,4-dichlorobenzyl)piperazin-1-yl]methylcarboxamido}methyl-5-methyl-1-phenyl-1H-pyrazole]",1420 ± 160
5,"CC(C)Cc1cc(CNC(=O)CN2CCN(c3ccccc3)CC2)nn1-c1ccccc1 [Compound No. 9, 3-[(4-phenylpiperazin-1-yl)methylcarboxamido]methyl-5-isobutyl-1-phenyl-1H-pyrazole]",3540 ± 90
6,"O=C(CN1CCN(c2ccccc2)CC1)NCc1cc(-c2ccco2)n(-c2ccccc2)n1 [Compound No. 11, 3-[(4-phenylpiperazin-1-yl)methylcarboxamido]methyl-5-furyl-1-phenyl-1H-pyrazole]",2570 ± 170
7,"CC(C)Cc1cc(CNC(=O)CN2CCN(Cc3ccc(C(F)(F)F)cc3)CC2)nn1-c1ccccc1 [Compound No. 16, 3-{[4-(4-trifluoromethylbenzyl)piperazin-1-yl]methylcarboxamido}methyl-5-isobutyl-1-phenyl-1H-pyrazole]",1770 ± 100
8,"CCCc1cc(CNC(=O)CN2CCN(c3ccccc3)CC2)nn1-c1ccccc1 [Compound No. 27, 3-[(4-phenylpiperazin-1-yl)methylcarboxamido}methyl-5-propyl-1-phenyl-1H-pyrazole]",5100 ± 110
9,"CCCc1cc(CNC(=O)CN2CCN(Cc3ccc(C(F)(F)F)cc3)CC2)nn1-c1ccccc1 [Compound No. 32, 3-{[4-(4-trifluoromethyl)benzylpiperazin-1-yl]methylcarboxamido}methyl-5-propyl-1-phenyl-1H-pyrazole]",1810 ± 90
10,"CCCc1cc(CNC(=O)CN2CCN(Cc3ccc4c(c3)OCO4)CC2)nn1-c1ccccc1 [Compound No. 33, 3-[(4-piperonylpiperazin-1-yl)methylcarboxamido]methyl-5-propyl-1-phenyl-1H-pyrazole]",9560 ± 1420

# Other lines, results leading:
row,IC50 [nM],SMILES
1,9420 ± 700,"CC(C)Cc1cc(CNC(=O)CN2CCN(c3ccccn3)CC2)nn1-c1ccccc1 [Compound No. 36, 3-{[4-(2-pyridyl)piperazin-1-yl]methylcarboxamido}methyl-5-isobutyl-1-phenyl-1H-pyrazole]"
2,2060 ± 1200,"Cc1cccc(N2CCN(C(=O)CNCc3cc(C)n(-c4ccccc4)n3)CC2)c1C [Compound No. 64, 3-{[4-(2,3-dimethylphenyl)piperazin-1-yl]carbonylmethylamino}methyl-5-methyl-1-phenyl-1H-pyrazole]"
3,3500 ± 350,"Cc1cc(CNCC(=O)N2CCN(C(c3ccccc3)c3ccccc3)CC2)nn1-c1ccccc1 [Compound No. 65, 3-[(4-benzhydrylpiperazin-1-yl)carbonylmethylamino]methyl-5-methyl-1-phenyl-1H-pyrazole]"
4,400 ± 40,"Cc1ccc(N2CCN(C(=O)CNCc3cc(CC(C)C)n(-c4ccccc4)n3)CC2)c(C)c1 [Compound No. 69, 3-{[4-(2,4-dimethylphenyl)piperazin-1-yl]carbonylmethylamino}methyl-5-isobutyl-1-phenyl-1H-pyrazole]"
5,300 ± 10,"CC(C)Cc1cc(CNCC(=O)N2CCN(Cc3ccc(Cl)c(Cl)c3)CC2)nn1-c1ccccc1 [Compound No. 75, 3-{[4-(3,4-dichlorobenzyl)piperazin-1-yl]carbonylmethylamino}methyl-5-isobutyl-1-phenyl-1H-pyrazole]"
6,360 ± 30,"Cc1cccc(N2CCN(C(=O)CNCc3cc(CC(C)C)n(-c4ccccc4)n3)CC2)c1C [Compound No. 76, 3-{[4-(2,3-dimethylphenyl)piperazin-1-yl]carbonylmethylamino}methyl-5-isobutyl-1-phenyl-1H-pyrazole]"
